US8178506B2, “Oligomeric compounds and compositions for use in modulation of small non-coding RNAs” (Regulus Therapeutics Inc., priority 2003, dated 2012)
In the oligonucleotide strings, read from the 5' end, every base follows the letter of its sugar. An asterisk marks phosphorothioate; unmarked linkages are phosphodiester. Other units and linkages are bracketed, terminal groups are in braces. A string of capitals states the bases alone. e = 2'-O-(2-methoxyethyl) (MOE); [5mC] = 5-methylcytosine; d = 2'-deoxy (DNA)

Assays:
Type in all cases: cell-based, human
adipocytes = test: Triglyceride accumulation assay in adipocytes
Method: The triglyceride accumulation assay measures the synthesis of triglyceride by adipocytes. Triglyceride accumulation is measured using the Infinity™ Triglyceride reagent kit (Sigma-Aldrich, St. Louis, Mo.). On day nine post-transfection, cells are washed and lysed at room temperature, and the triglyceride assay reagent is added. Triglyceride accumulation is measured based on the amount of glycerol liberated from triglycerides by the enzyme lipoprotein lipase. Liberated glycerol is phosphorylated by glycerol kinase, and hydrogen peroxide is generated during the oxidation of glycerol-1-phosphate to dihydroxyacetone phosphate by glycerol phosphate oxidase. Horseradish peroxidase (HRP) uses H2O2 to oxidize 4-aminoantipyrine and 3,5 dichloro-2-hydroxybenzene sulfonate to produce a red-colored dye. Dye absorbance, which is proportional to the concentration of glycerol, is measured at 515 nm using an UV spectrophotometer. Glycerol concentration is calculated from a standard curve for each assay, and data are normalized to total cellular protein as determined by a Bradford assay (Bio-Rad Laboratories, Hercules, Calif.).
An increase in triglyceride content is another well-established marker for adipocyte differentiation. The triglyceride accumulation assay measures the synthesis of triglyceride by adipocytes. Triglyceride accumulation was measured using the Infinity™ Triglyceride reagent kit (Sigma-Aldrich, St. Louis, Mo.). Human white preadipocytes (Zen-Bio Inc., Research Triangle Park, N.C.) were grown in preadipocyte media (ZenBio Inc.). One day before transfection, 96-well plates were seeded with 3000 cells/well. Cells were transfected according to standard published procedures with 250 nM oligomeric compound in LIPOFECTIN™ (Invitrogen Corporation, Carlsbad, Calif.) (Monia et al., J. Biol. Chem. 1993 268(19):14514-22). Oligomeric compounds were tested in triplicate on each 96-well plate, and the effects of TNF-α, a positive drug control that inhibits adipocyte differentiation, were also measured in triplicate. Negative and transfectant-only controls may be measured up to six times per plate. After the cells have reached confluence (approximately three days), they were exposed to differentiation media (Zen-Bio, Inc.) containing a PPAR-γ agonist, IBMX, dexamethasone, and insulin for three days. Cells were then fed adipocyte media (Zen-Bio, Inc.), which was replaced at 2 to 3 day intervals. […] Triglyceride accumulation was measured based on the amount of glycerol liberated from triglycerides by the enzyme lipoprotein lipase. Liberated glycerol is phosphorylated by glycerol kinase, and hydrogen peroxide is generated during the oxidation of glycerol-1-phosphate to dihydroxyacetone phosphate by glycerol phosphate oxidase. Horseradish peroxidase (HRP) uses H2O2 to oxidize 4-aminoantipyrine and 3,5 dichloro-2-hydroxybenzene sulfonate to produce a red-colored dye. Dye absorbance, which is proportional to the concentration of glycerol, was measured at 515 nm using an UV spectrophotometer. Glycerol concentration was calculated from a standard curve for each assay, and data were normalized to total cellular protein as determined by a Bradford assay (Bio-Rad Laboratories, Hercules, Calif.). Results are expressed as a percent±standard deviation relative to transfectant-only control.

aP2 = aP2 mRNA expression in adipocytes (real-time PCR); settings: for aP2 mRNA: Table 75
Method: (§1) Expression of the four hallmark genes, HSL, aP2, Glut4, and PPARγ, is also measured in adipocytes transfected with oligomeric compounds of the invention. Cells are lysed on day nine post-transfection and total RNA is harvested. The amount of total RNA in each sample is determined using a Ribogreen Assay (Invitrogen Life Technologies, Carlsbad, Calif.).
(§2) For assaying adipocyte differentiation, expression of the four hallmark genes, HSL, aP2, Glut4, and PPARγ, as well as triglyceride (TG) accumulation and leptin secretion were measured in adipocytes transfected with the uniform 2′-MOE phosphorothioate (PS) oligomeric compounds previously described. Cells are lysed on day nine post-transfection, in a guanadinium-containing buffer and total RNA is harvested. Real-time PCR is performed (Applied Biosystems, Prism 7700) on the total RNA using the following primer/probe sets for the adipocyte differentiation hallmark genes: (aP2): forward 5′-GGTGGTGGAATGCGTCATG-3′ (SEQ ID NO: 746), reverse 5′-[…]-3′ (SEQ ID NO: 747), probe 5′-FAM-[…]-TAMRA-3′ (SEQ ID NO: 748); (Glut4): forward 5′-GGCCTCCGCAGGTTCTG-3′ (SEQ ID NO: 749), reverse 5′-[…]-3′ (SEQ ID NO: 750), probe 5′-FAM-[…]-TAMRA-3′ (SEQ ID NO: 751); (HSL): forward 5′-ACCTGCGCACAATGACACA-3′ (SEQ ID NO: 752), reverse 5′-[…]-3′ (SEQ ID NO: 753), probe 5′-FAM-[…]-TAMRA-3′ (SEQ ID NO: 754); (PPAR-γ): forward 5′-[…]-3′ (SEQ ID NO: 755), reverse 5′-[…]-3′ (SEQ ID NO: 756), probe 5′-FAM-[…]-TAMRA-3′ (SEQ ID NO: 757). The amount of total RNA in each sample is determined using a Ribogreen Assay (Molecular Probes, Eugene, Oreg.), and expression levels of the adipocyte differentiation hallmark genes were normalized to total RNA.

Glut4 = Glut4 mRNA expression in adipocytes (real-time PCR)
Method: as §1, §2

HSL = HSL mRNA expression in adipocytes (real-time PCR)
Method: as §1, §2

PPARγ = PPARγ mRNA expression in adipocytes (real-time PCR)
Method: as §1, §2

HeLa cells = test: Cell cycle assay in HeLa cells; settings: HeLa, 150 nM
[1] = 300 nM, differentiating adipocytes day 10 post-induction, 24 hours after treatment
[2] = Table 17, differentiating adipocytes, control = treatment with ISIS 342673
[3] = Table 18, differentiating adipocytes, control = treatment with ISIS 342673
[4] = differentiating adipocytes transfected with oligomeric compound, Table 75
[5] = differentiating adipocytes transfected with oligomeric compound

## 105990 (antisense AGCAAAAGATCAATCCGTTA; sugars from the 5' end e5 d10 e5, backbone and methylation of C not given here) [compound 105990]
adipocytes; [1]
  Triglycerides: 16.6 % UTC
adipocytes; [2]
  TG (triglyceride accumulation): 28.2 percentage of control
adipocytes; [3]
  TG (triglyceride accumulation): 32.8 percentage of control
aP2; [1]
  AP2 mRNA: 17.9 % UTC
aP2; [2]
  AP2 mRNA: 51.6 percentage of control
aP2; [3]
  AP2 mRNA: 49.8 percentage of control
Glut4; [1]
  GLUT4 mRNA: 11.8 % UTC
Glut4; [2]
  GLUT4 mRNA: 59.5 percentage of control
Glut4; [3]
  GLUT4 mRNA: 68.1 percentage of control
HSL; [1]
  HSL mRNA: 7.4 % UTC
HSL; [2]
  HSL mRNA: 49.2 percentage of control
HSL; [3]
  HSL mRNA: 52.0 percentage of control
PPARγ; [1]
  PPAR-gamma mRNA: 43.9 % UTC
PPARγ; [2]
  PPAR gamma mRNA: 51.8 percentage of control
PPARγ; [3]
  PPAR gamma mRNA: 60.1 percentage of control

## 327969 (antisense eT*eG*eT*eG*eA*eG*eT*eT*e[5mC]*eT*eA*e[5mC]*e[5mC]*eA*eT*eT*eG*e[5mC]*e[5mC]*eA*eA*eA) [compound 327969]
adipocytes; [3]
  TG (triglyceride accumulation): 46.0 percentage of control
adipocytes; [4]
  TG (triglyceride accumulation): 34 percentage of untreated control (UTC)
aP2; [3]
  AP2 mRNA: 59.8 percentage of control
aP2; [5]
  aP2 mRNA: 44 percentage of untreated control (UTC)
Glut4; [3]
  GLUT4 mRNA: 60.6 percentage of control
Glut4; [4]
  GLUT4 mRNA: 36 percentage of untreated control (UTC)
HSL; [3]
  HSL mRNA: 66.4 percentage of control
HSL; [4]
  HSL mRNA: 45 percentage of untreated control (UTC)
PPARγ; [3]
  PPAR gamma mRNA: 69.2 percentage of control
PPARγ; [4]
  PPAR gamma mRNA: 67 percentage of untreated control (UTC)

## 327970 (antisense eA*e[5mC]*eA*eA*eA*eG*eT*eT*e[5mC]*eT*eG*eT*eA*eG*eT*eG*e[5mC]*eA*e[5mC]*eT*eG*eA) [compound 327970]
adipocytes; [4]
  TG (triglyceride accumulation): 48 percentage of untreated control (UTC)
aP2; [5]
  aP2 mRNA: 29 percentage of untreated control (UTC)
Glut4; [4]
  GLUT4 mRNA: 27 percentage of untreated control (UTC)
HSL; [4]
  HSL mRNA: 25 percentage of untreated control (UTC)
PPARγ; [4]
  PPAR gamma mRNA: 46 percentage of untreated control (UTC)

## 327972 (antisense eA*e[5mC]*eT*e[5mC]*eA*e[5mC]*e[5mC]*eG*eA*e[5mC]*eA*eG*eG*eT*eT*eG*eA*eA*eT*eG*eT*eT) [compound 327972]
adipocytes; [4]
  TG (triglyceride accumulation): 67 percentage of untreated control (UTC)
aP2; [5]
  aP2 mRNA: 70 percentage of untreated control (UTC)
Glut4; [4]
  GLUT4 mRNA: 75 percentage of untreated control (UTC)
HSL; [4]
  HSL mRNA: 70 percentage of untreated control (UTC)
PPARγ; [4]
  PPAR gamma mRNA: 85 percentage of untreated control (UTC)

## 328089 (antisense eA*e[5mC]*eT*eG*eT*eA*eG*eG*eA*eA*eT*eA*eT*eG*eT*eT*eT*eG*eA*eT*eA) [compound 328089]
adipocytes; [4]
  TG (triglyceride accumulation): 67 percentage of untreated control (UTC)
aP2; [5]
  aP2 mRNA: 50 percentage of untreated control (UTC)
Glut4; [4]
  GLUT4 mRNA: 59 percentage of untreated control (UTC)
HSL; [4]
  HSL mRNA: 55 percentage of untreated control (UTC)
PPARγ; [4]
  PPAR gamma mRNA: 79 percentage of untreated control (UTC)

## 328090 (antisense eA*eT*eT*eA*eA*eA*eA*eA*eG*eT*e[5mC]*e[5mC]*eT*e[5mC]*eT*eT*eG*e[5mC]*e[5mC]*e[5mC]*eA) [compound 328090]
adipocytes; [4]
  TG (triglyceride accumulation): 128 percentage of untreated control (UTC)
aP2; [5]
  aP2 mRNA: 68 percentage of untreated control (UTC)
Glut4; [4]
  GLUT4 mRNA: 86 percentage of untreated control (UTC)
HSL; [4]
  HSL mRNA: 81 percentage of untreated control (UTC)
PPARγ; [4]
  PPAR gamma mRNA: 95 percentage of untreated control (UTC)

## 328091 (antisense eG*e[5mC]*eT*eG*e[5mC]*e[5mC]*eG*eT*eA*eT*eA*eT*eG*eT*eG*eA*eT*eG*eT*e[5mC]*eA) [compound 328091]
adipocytes; [4]
  TG (triglyceride accumulation): 48 percentage of untreated control (UTC)
aP2; [5]
  aP2 mRNA: 46 percentage of untreated control (UTC)
Glut4; [4]
  GLUT4 mRNA: 26 percentage of untreated control (UTC)
HSL; [4]
  HSL mRNA: 40 percentage of untreated control (UTC)
PPARγ; [4]
  PPAR gamma mRNA: 85 percentage of untreated control (UTC)

## 328092 (antisense eG*eG*eT*eA*eG*eG*eT*eG*eG*eA*eA*eT*eA*e[5mC]*eT*eA*eT*eA*eA*e[5mC]*eA) [compound 328092]
adipocytes; [4]
  TG (triglyceride accumulation): 134 percentage of untreated control (UTC)
aP2; [5]
  aP2 mRNA: 74 percentage of untreated control (UTC)
Glut4; [4]
  GLUT4 mRNA: 78 percentage of untreated control (UTC)
HSL; [4]
  HSL mRNA: 80 percentage of untreated control (UTC)
PPARγ; [4]
  PPAR gamma mRNA: 86 percentage of untreated control (UTC)

## 328093 (antisense eT*eA*eA*eA*e[5mC]*eA*eT*e[5mC]*eA*e[5mC]*eT*eG*e[5mC]*eA*eA*eG*eT*e[5mC]*eT*eT*eA) [compound 328093]
adipocytes; [5]
  TG (triglyceride accumulation): 59 percentage of untreated control (UTC)
aP2; [5]
  AP2 mRNA: 97 percentage of untreated control (UTC)
Glut4; [5]
  GLUT4 mRNA: 73 percentage of untreated control (UTC)
HSL; [5]
  HSL mRNA: 89 percentage of untreated control (UTC)
PPARγ; [5]
  PPAR gamma mRNA: 99 percentage of untreated control (UTC)

## 328094 (antisense eT*eT*eG*eT*eA*eA*eG*e[5mC]*eA*eG*eT*eT*eT*eT*eG*eT*eT*eG*eA*e[5mC]*eA) [compound 328094]
adipocytes; [4]
  TG (triglyceride accumulation): 65 percentage of untreated control (UTC)
aP2; [5]
  aP2 mRNA: 68 percentage of untreated control (UTC)
Glut4; [4]
  GLUT4 mRNA: 83 percentage of untreated control (UTC)
HSL; [4]
  HSL mRNA: 74 percentage of untreated control (UTC)
PPARγ; [4]
  PPAR gamma mRNA: 94 percentage of untreated control (UTC)

## ISIS 338833: SEQ ID NO: 660, targeted to hypothetical miRNA-181 (TCGTGCACCTGAGGAGTCTG; all 2'-MOE, all phosphorothioate, methylation of C not given here)
HeLa cells; 24-hour and 48-hour timepoints
  chromosome missegregation (subG1 or aneuploid DNA content): induce chromosome missegregation events

## ISIS 341787: SEQ ID NO: 852, targeted against mir-125a (mouse) (CACAGGTTAAAGGGTCTCAGGGA; all 2'-MOE, all phosphorothioate, methylation of C not given here)
HeLa cells; 48 hours
  phase of the cell cycle in which cells arrest or delay: arrest or delay in G2/M as well as an increased percentage of cells in the subG1 and aneuploid categories
